Laboratory results from ChEMBL document CHEMBL4364319 (Eur J Med Chem, 2019).
Calls of active or inactive are those of the source. No cut-off for these calls is given here.

Columns and labels:
Dipeptidyl peptidase 8 = Dipeptidyl peptidase 8 (Homo sapiens, UniProt Q6V1X1); assay: Inhibition of DPP8 (unknown origin) using Gly-Pro-AMC as substrate preincubated for 15 mins followed by substrate addition measured at 60 secs interval for 20 mins by fluorometic method
Dipeptidyl peptidase 9 = Dipeptidyl peptidase 9 (Homo sapiens, UniProt Q86TI2); assay: Inhibition of DPP9 (unknown origin) using Gly-Pro-AMC as substrate preincubated for 15 mins followed by substrate addition measured at 60 secs interval for 20 mins by fluorometic method
[1] = Stability in PBS at pH 7.4 assessed as compound remaining at 1 uM after 120 mins by LC-MS/MS analysis relative to control; format: physicochemical; conditions: read-out: Stability
[2] = Stability in Sprague-Dawley rat plasma assessed as compound remaining at 1 uM measured up to 120 mins by LC-MS/MS analysis relative to control; format: ADME, cell-free; conditions: read-out: Stability
[3] = Cytotoxicity against human LO2 cells assessed as cell viability at 20 uM after 48 hrs by MTT assay; format: cell-based, L02; conditions: read-out: Activity
Mus musculus [4] = assay: Anti-diabetic activity in 12 hrs-fasted ICR mouse assessed as reduction in blood glucose AUC (0 to 120 mins)at 10 mg/kg, po pretreated for 60 mins followed by glucose challenge and measured after 120 mins post glucose challenge by OGTT relative to control; format: functional; design: scale not given: the % may be the effect or the level left
Mus musculus [5] = assay: Anti-diabetic activity in 8 hrs-fasted C57BL/6 db/db mouse assessed as reduction in blood glucose AUC (0 to 120 mins) at 10 mg/kg, po pretreated for 60 mins followed by glucose challenge and measured after 120 mins post glucose challenge by OGTT relative to control; format: functional; design: scale not given: the % may be the effect or the level left
Mus musculus [6] = assay: Anti-diabetic activity in 8 hrs-fasted C57BL/6 db/db mouse assessed as reduction in blood glucose AUC (0 to 120 mins) at 3 mg/kg, po pretreated for 60 mins followed by glucose challenge and measured after 120 mins post glucose challenge by OGTT relative to control; format: functional; design: scale not given: the % may be the effect or the level left
Mus musculus [7] = assay: Anti-diabetic activity in 8 hrs-fasted C57BL/6 db/db mouse assessed as reduction in blood glucose AUC (0 to 120 mins) at 1 mg/kg, po pretreated for 60 mins followed by glucose challenge and measured after 120 mins post glucose challenge by OGTT relative to control; format: functional; design: scale not given: the % may be the effect or the level left
Mus musculus [8] = assay: Anti-diabetic activity in db/db mouse assessed as reduction in fasting blood glucose leave at 3 mg/kg, po dosed once daily for 3 weeks measured for every 7 days; format: functional, organism-based
Mus musculus [9] = assay: Anti-diabetic activity in db/db mouse assessed as reduction in fasting blood glucose leave at 10 mg/kg, po dosed once daily for 3 weeks measured for every 7 days; format: functional, organism-based
Mus musculus [10] = assay: Anti-diabetic activity in db/db mouse assessed as increase in glucose tolerance at 10 mg/kg, po dosed once daily for 3 weeks following 12 hrs fasting and glucose challenge measured up to 120 mins; format: functional, organism-based
Mus musculus [11] = assay: Anti-diabetic activity in db/db mouse assessed as reduction in blood glucose AUC (0 to 120 mins) at 3 mg/kg, po dosed once daily for 3 weeks following 12 hrs fasting and glucose challenge measured up to 120 mins relative to control; format: functional; design: scale not given: the % may be the effect or the level left
Mus musculus [12] = assay: Anti-diabetic activity in db/db mouse assessed as reduction in blood glucose AUC (0 to 120 mins) at 10 mg/kg, po dosed once daily for 3 weeks following 12 hrs fasting and glucose challenge measured up to 120 mins relative to control; format: functional; design: scale not given: the % may be the effect or the level left
[13] = Toxicity in db/db mouse assessed as increase in body weight at 3 to 10 mg/kg, po dosed once daily for 3 weeks and measured every day; format: organism-based; conditions: in vivo, 504 h
[14] = Half life in Sprague-Dawley rat at 10 mg/kg, po via gavage after 48 hrs by LC-MS/MS analysis; format: ADME, organism-based; conditions: in vivo
[15] = Half life in Sprague-Dawley rat assessed as (R)-2-((8-(3-aminopiperidin-1-yl)-7-(but-2-yn-1-yl)-3-methyl-2,6-dioxo-2,3,6,7-tetrahydro-1H-purin-1-yl)methyl)-5-chlorobenzoic acid level at 10 mg/kg, po via gavage after 48 hrs by LC-MS/MS analysis; format: ADME, organism-based; conditions: in vivo
[16] = Tmax in Sprague-Dawley rat at 10 mg/kg, po via gavage after 48 hrs by LC-MS/MS analysis; format: ADME, organism-based; conditions: in vivo
[17] = Tmax in Sprague-Dawley rat assessed as (R)-2-((8-(3-aminopiperidin-1-yl)-7-(but-2-yn-1-yl)-3-methyl-2,6-dioxo-2,3,6,7-tetrahydro-1H-purin-1-yl)methyl)-5-chlorobenzoic acid level at 10 mg/kg, po via gavage after 48 hrs by LC-MS/MS analysis; format: ADME, organism-based; conditions: in vivo
[18] = Cmax in Sprague-Dawley rat at 10 mg/kg, po via gavage after 48 hrs by LC-MS/MS analysis; format: ADME, organism-based; design: dose 10 mg/kg, route oral; conditions: in vivo
[19] = Cmax in Sprague-Dawley rat assessed as (R)-2-((8-(3-aminopiperidin-1-yl)-7-(but-2-yn-1-yl)-3-methyl-2,6-dioxo-2,3,6,7-tetrahydro-1H-purin-1-yl)methyl)-5-chlorobenzoic acid level at 10 mg/kg, po via gavage after 48 hrs by LC-MS/MS analysis; format: ADME, organism-based; design: dose 10 mg/kg, route oral; conditions: in vivo
[20] = AUC (0 to infinity) in Sprague-Dawley rat at 10 mg/kg, po via gavage after 48 hrs by LC-MS/MS analysis; format: ADME, organism-based; design: dose 10 mg/kg, route oral, time infinity; conditions: in vivo
[21] = AUC (0 to infinity) in Sprague-Dawley rat assessed as (R)-2-((8-(3-aminopiperidin-1-yl)-7-(but-2-yn-1-yl)-3-methyl-2,6-dioxo-2,3,6,7-tetrahydro-1H-purin-1-yl)methyl)-5-chlorobenzoic acid level at 10 mg/kg, po via gavage after 48 hrs by LC-MS/MS analysis; format: ADME, organism-based; design: dose 10 mg/kg, route oral, time infinity; conditions: in vivo
[22] = Clearance in Sprague-Dawley rat at 10 mg/kg, po via gavage after 48 hrs by LC-MS/MS analysis; format: ADME, organism-based; conditions: in vivo
[23] = Clearance in Sprague-Dawley rat assessed as (R)-2-((8-(3-aminopiperidin-1-yl)-7-(but-2-yn-1-yl)-3-methyl-2,6-dioxo-2,3,6,7-tetrahydro-1H-purin-1-yl)methyl)-5-chlorobenzoic acid level at 10 mg/kg, po via gavage after 48 hrs by LC-MS/MS analysis; format: ADME, organism-based; conditions: in vivo
[24] = Oral bioavailability in Sprague-Dawley rat assessed as (R)-2-((8-(3-aminopiperidin-1-yl)-7-(but-2-yn-1-yl)-3-methyl-2,6-dioxo-2,3,6,7-tetrahydro-1H-purin-1-yl)methyl)-5-chlorobenzoic acid level at 10 mg/kg via gavage after 48 hrs by LC-MS/MS analysis; format: ADME, organism-based; conditions: in vivo
Mus musculus [25] = assay: Anti-diabetic activity in po dosed 8 hrs-fasted C57BL/6 db/db mouse assessed as increase in glucose tolerance pretreated for 60 mins followed by glucose challenge and measured after 120 mins post glucose challenge by OGTT; format: functional, organism-based
Rattus norvegicus [26] = species: Rattus norvegicus; assay: animal or person; conditions: Sprague-Dawley, po, 12 h, read-out: INH
Rattus norvegicus [27] = species: Rattus norvegicus; assay: animal or person; conditions: Sprague-Dawley, po, 24 h, read-out: INH

Dipeptidyl peptidase 8, sequence (Q6V1X1 whole entry): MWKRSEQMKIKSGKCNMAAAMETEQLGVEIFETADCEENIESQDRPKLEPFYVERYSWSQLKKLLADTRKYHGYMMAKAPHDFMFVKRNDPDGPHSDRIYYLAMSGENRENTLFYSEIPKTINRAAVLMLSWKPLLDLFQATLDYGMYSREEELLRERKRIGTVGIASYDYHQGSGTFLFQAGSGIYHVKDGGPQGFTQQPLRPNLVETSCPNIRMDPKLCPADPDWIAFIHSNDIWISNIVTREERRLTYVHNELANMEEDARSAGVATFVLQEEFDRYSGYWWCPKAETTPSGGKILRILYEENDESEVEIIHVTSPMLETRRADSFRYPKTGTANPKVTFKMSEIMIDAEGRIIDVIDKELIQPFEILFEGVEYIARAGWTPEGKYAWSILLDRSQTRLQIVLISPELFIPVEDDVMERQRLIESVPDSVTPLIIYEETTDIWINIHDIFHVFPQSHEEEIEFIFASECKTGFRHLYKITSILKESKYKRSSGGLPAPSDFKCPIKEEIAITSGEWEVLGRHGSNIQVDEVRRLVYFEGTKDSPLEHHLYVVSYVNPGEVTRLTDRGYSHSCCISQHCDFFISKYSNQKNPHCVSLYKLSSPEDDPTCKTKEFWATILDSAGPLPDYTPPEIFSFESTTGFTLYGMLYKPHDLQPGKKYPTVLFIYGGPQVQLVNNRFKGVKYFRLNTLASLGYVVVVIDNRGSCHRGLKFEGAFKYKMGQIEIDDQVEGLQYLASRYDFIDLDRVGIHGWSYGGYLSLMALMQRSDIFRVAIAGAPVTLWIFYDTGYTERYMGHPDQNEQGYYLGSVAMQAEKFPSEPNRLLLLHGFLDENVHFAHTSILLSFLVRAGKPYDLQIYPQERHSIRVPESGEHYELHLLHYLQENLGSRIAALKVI
Dipeptidyl peptidase 9, sequence (Q86TI2 whole entry): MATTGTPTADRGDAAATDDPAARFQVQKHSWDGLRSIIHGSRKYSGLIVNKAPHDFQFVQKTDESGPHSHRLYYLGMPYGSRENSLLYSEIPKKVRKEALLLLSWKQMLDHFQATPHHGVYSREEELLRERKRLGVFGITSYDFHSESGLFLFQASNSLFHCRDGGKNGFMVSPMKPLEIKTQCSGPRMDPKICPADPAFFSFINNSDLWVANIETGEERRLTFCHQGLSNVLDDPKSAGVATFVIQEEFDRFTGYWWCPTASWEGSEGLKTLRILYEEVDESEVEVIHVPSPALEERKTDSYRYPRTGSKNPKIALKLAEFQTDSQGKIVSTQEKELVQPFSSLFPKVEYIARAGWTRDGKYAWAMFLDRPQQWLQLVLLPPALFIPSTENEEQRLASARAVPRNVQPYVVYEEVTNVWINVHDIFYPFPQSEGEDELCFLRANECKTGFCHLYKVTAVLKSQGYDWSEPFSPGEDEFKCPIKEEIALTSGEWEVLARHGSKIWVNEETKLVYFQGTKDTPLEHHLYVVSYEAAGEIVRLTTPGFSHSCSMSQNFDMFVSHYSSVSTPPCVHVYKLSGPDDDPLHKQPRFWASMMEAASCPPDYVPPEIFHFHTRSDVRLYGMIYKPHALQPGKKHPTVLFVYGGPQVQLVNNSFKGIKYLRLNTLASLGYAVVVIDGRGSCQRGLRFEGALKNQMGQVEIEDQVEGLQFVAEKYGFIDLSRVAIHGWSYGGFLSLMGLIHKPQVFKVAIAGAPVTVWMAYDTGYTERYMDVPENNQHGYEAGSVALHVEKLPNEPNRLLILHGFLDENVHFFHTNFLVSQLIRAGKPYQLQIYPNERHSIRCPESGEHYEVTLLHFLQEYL

Structure (SMILES): CC#CCn1c(N2CCC[C@@H](N)C2)nc2c1c(=O)n(Cc1ccc(Cl)cc1C(=O)OC)c(=O)n2C
- IC50 (Dipeptidyl peptidase 8): > 100 µM
- IC50 (Dipeptidyl peptidase 9): > 100 µM
- remaining at 2 h, 1 µM [1]: 101%
- remaining at 2 h, 1 µM [2]: 65.2%
- viability at 48 h, 20 µM [3]: 90%
- Activity (Mus musculus [4]): 17.43%
- Activity (Mus musculus [5]): 54.7%
- Activity (Mus musculus [6]): 28.8%
- Activity (Mus musculus [7]): 26.4%
- Activity (Mus musculus [8]): Active
- Activity (Mus musculus [9]): Active
- Activity (Mus musculus [10]): Active
- Activity (Mus musculus [11]): 6%
- Activity (Mus musculus [12]): 13.2%
- Activity [13]: Non-Toxic
- half-life [14]: 10.1 h
- t1/2 [15]: 11.81 h
- Tmax [16]: 1 h
- Tmax [17]: 1 h
- Cmax [18]: 1.18 µg/mL
- Cmax [19]: 0.69332 µg/mL
- AUC [20]: 6.1073 µg·h/mL
- AUC [21]: 3.74605 µg·h/mL
- CL [22]: 0.16 L/h/kg
- CL [23]: 0.27 L/h/kg
- F [24]: 19.46%
- Activity (Mus musculus [25]): Dose-dependent effect
- inhibition in vivo at 10 mg/kg (Rattus norvegicus [26]): 85%
- inhibition in vivo at 10 mg/kg (Rattus norvegicus [27]): 60%
